For 8 compounds, IC50 results are on record in ChEMBL document CHEMBL1150499, “Excitatory amino acids: 6-phosphonomethyltetrahydro-4-pyrimidinecarboxylic acids and their acyclic analogues are competitive N-methyl-D-aspartic acid receptor antagonists” (Bioorg Med Chem Lett, 1992).

The assay has as its target Glutamate NMDA receptor. The assay is described as follows: Compound was evaluated for its ability to displace […] binding for NMDA receptor. Format: protein-complex assay.
As a reminder, the IC50 is the concentration that inhibits the measured activity by half. A low value points to inhibition by little substance. In turn, `O=C(O)C1CN(CCCP(=O)(O)O)CCN1` (stereo not drawn) yielded an IC50 of 28 nM.
Consider `NC(CC(N)C(=O)O)CP(=O)(O)O` (stereo not drawn), for which the IC50 amounted to 1440 nM.
To `NC(CC(O)CP(=O)(O)O)C(=O)O` (stereo not drawn) belongs 130 nM; to `NC(CC(CP(=O)(O)O)S(=O)O)C(=O)O` (stereo not drawn), 240 nM; to `O=C(O)C1CC(CP(=O)(O)O)N=CN1` (stereo not drawn), 5950 nM.
As to `NC(CCCP(=O)(O)O)CC(N)C(=O)O` (stereo not drawn), the IC50 stood at 2270 nM.
The figure for `O=C(O)C1CC(CCCP(=O)(O)O)N=CN1` (stereo not drawn) is 420 nM; for `O=C(O)[C@@H]1C[C@H](CP(=O)(O)O)CCN1` [SELFOTEL] it is 24 nM.
